Source: ChEMBL document CHEMBL4825757, “Optimization of 4,6-Disubstituted Pyrido[3,2-d]pyrimidines as Dual MNK/PIM Inhibitors to Inhibit Leukemia Cell Growth” (J Med Chem, 2021)
Activity calls are given as the source filed them. The rule behind the calls is not given here.

Columns and labels:
[1] = target: Serine/threonine-protein kinase pim-3 (Homo sapiens, UniProt Q86V86); experiment: Inhibition of recombinant human Pim3 (2 to end residues) using RSRHSSYPAGT as substrate incubated for 40 mins in presence of [gamma33P]ATP by scintillation counting based radiometry assay
[2] = target: Receptor tyrosine-protein kinase erbB-2 (Homo sapiens, UniProt P04626); experiment: Inhibition of ERBB2 (unknown origin) by mobility shift assay
[3] = test system: K562; experiment: Downregulation of cyclin-D1 levels in human K562 cells at 1 to 2 uM incubated for 24 hrs by western blot analysis; type: functional, cell-based; settings: dose 1-2 µM
[4] = test system: MOLM-13; experiment: Antitumor activity against human MOLM-13 cells xenografted in NOD/SCID mouse assessed as decrease in eIF4E phosphorylation at 10 mg/kg, ip daily for 2 weeks by western blot analysis; type: functional, organism-based

Receptor tyrosine-protein kinase erbB-2, sequence (P04626 whole entry): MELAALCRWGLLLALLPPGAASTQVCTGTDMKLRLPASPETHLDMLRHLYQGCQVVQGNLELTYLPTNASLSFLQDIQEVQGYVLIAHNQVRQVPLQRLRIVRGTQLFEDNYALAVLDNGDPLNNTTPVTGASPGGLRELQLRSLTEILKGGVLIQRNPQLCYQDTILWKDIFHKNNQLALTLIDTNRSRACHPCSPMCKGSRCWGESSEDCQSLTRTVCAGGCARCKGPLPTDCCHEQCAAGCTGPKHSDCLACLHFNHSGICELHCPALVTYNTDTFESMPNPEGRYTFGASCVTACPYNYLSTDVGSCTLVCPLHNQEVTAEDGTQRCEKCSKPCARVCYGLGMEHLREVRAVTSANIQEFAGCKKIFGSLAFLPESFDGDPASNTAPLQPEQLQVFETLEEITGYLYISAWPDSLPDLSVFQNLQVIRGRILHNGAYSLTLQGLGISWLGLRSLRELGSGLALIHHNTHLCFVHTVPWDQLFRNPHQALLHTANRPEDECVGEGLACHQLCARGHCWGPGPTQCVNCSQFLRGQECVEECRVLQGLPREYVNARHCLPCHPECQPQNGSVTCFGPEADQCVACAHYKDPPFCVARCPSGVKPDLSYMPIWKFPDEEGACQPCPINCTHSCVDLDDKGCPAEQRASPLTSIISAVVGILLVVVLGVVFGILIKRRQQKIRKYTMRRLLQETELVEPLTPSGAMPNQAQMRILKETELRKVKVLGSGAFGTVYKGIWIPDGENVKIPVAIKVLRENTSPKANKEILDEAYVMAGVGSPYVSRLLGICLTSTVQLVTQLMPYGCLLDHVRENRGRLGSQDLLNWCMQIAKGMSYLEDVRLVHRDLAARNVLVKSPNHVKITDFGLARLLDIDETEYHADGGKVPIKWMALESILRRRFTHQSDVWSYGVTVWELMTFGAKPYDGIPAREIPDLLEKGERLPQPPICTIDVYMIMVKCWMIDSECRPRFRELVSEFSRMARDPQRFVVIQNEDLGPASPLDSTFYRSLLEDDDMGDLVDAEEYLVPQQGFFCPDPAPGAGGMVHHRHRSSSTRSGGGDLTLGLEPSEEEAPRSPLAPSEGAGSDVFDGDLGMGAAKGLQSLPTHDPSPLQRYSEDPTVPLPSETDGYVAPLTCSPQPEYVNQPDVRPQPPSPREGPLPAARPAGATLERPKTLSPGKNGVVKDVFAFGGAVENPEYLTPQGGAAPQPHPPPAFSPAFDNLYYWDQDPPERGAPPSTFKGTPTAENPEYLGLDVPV

- IC50 [1]: 0.774 µM
- IC50 [2]: 7.49 µM
Structure (SMILES): CC(C)Oc1cc(F)ccc1Nc1ncnc2ccc(-c3ccc(C(=O)N4CCNCC4)cc3)nc12
- Activity [3]: Active
- Activity [4]: Active
